Data from ChEMBL document CHEMBL4000245, “Discovery and biological evaluation of some (1H-1,2,3-triazol-4-yl)methoxybenzaldehyde derivatives containing an anthraquinone moiety as potent xanthine oxidase inhibitors” (Bioorg Med Chem Lett, 2017).

Legend:
[1] = biological target: T1, Xanthine dehydrogenase/oxidase (Bos taurus, UniProt P80457); assay: Inhibition of bovine xanthine oxidase assessed as reduction in uric acid levels at 50 uM using xanthine as substrate after 120 mins by spectrophotometry; settings: cattle, 2 h
[2] = biological target: T1, Xanthine dehydrogenase/oxidase; assay: Inhibition of bovine xanthine oxidase assessed as reduction in uric acid levels using xanthine as substrate after 120 mins by spectrophotometry
[3] = biological target: T1, Xanthine dehydrogenase/oxidase; assay: Mixed-type inhibition of bovine xanthine oxidase assessed as enzyme-inhibitor-substrate complex using xanthine as substrate after 60 secs by Lineweaver-Burk plot method
[4] = biological target: T1, Xanthine dehydrogenase/oxidase; assay: Mixed-type inhibition of bovine xanthine oxidase assessed as enzyme-inhibitor complex using xanthine as substrate after 60 secs by Lineweaver-Burk plot method
[5] = biological target: T1, Xanthine dehydrogenase/oxidase; assay: Potency index, ratio of allopurinol IC50 to compound IC50 for inhibition of bovine xanthine oxidase; settings: cattle

T1 sequence (P80457 whole entry): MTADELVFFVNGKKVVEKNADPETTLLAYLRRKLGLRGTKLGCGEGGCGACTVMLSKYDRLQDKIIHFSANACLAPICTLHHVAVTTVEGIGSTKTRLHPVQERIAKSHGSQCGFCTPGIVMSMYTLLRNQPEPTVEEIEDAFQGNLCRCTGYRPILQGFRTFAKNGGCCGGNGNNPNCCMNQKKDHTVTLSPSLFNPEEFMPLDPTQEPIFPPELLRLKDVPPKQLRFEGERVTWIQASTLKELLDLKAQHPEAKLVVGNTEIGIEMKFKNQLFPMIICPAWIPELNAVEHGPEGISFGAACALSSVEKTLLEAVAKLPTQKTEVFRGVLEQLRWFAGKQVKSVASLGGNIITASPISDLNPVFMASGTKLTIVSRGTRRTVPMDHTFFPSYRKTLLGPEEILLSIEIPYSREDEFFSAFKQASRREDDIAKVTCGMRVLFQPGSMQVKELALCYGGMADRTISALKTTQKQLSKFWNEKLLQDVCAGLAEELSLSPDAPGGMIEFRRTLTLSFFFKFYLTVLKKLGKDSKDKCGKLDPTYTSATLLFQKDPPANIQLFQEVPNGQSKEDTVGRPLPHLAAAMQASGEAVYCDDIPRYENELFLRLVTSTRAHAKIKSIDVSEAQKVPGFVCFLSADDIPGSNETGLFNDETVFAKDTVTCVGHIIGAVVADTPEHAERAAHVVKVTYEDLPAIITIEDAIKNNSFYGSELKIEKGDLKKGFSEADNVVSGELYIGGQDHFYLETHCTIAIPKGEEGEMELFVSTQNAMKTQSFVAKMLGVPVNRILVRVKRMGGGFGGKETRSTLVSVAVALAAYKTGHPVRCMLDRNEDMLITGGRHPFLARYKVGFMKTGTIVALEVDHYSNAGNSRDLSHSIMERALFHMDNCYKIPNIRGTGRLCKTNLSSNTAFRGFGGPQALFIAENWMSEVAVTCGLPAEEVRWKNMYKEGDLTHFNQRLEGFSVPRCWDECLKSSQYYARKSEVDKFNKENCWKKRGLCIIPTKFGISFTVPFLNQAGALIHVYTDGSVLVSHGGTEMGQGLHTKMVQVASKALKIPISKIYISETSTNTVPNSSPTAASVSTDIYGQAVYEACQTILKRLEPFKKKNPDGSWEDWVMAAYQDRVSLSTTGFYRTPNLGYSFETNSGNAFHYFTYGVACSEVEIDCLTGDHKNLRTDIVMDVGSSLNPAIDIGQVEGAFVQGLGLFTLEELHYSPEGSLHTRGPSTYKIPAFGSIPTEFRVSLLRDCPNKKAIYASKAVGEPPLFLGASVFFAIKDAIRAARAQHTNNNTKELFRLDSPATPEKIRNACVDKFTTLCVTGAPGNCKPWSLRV

| Structure (SMILES) | inhibition at 50 µM [1] | IC50 [2] | further results |
| --- | --- | --- | --- |
| CC(=O)Nc1ccc(OCc2cn(Cc3ccc4c(c3)C(=O)c3ccccc3C4=O)nn2)cc1 | 20.1% |  |  |
| O=Cc1cc(F)ccc1OCc1cn(Cc2ccccc2)nn1 | 83.4% | 21.5 µM |  |
| O=C1c2ccccc2C(=O)c2cc(Cn3cc(COc4c(Cl)cccc4Cl)nn3)ccc21 | 12.7% |  |  |
| O=Cc1ccc(F)cc1OCc1cn(Cc2ccc3c(c2)C(=O)c2ccccc2C3=O)nn1 | 70.8% | 6.5 µM |  |
| O=Cc1ccccc1OCc1cn(Cc2ccc3c(c2)C(=O)c2ccccc2C3=O)nn1 | 90.7% | 0.6 µM | Ki [3]: 0.94 µM; Ki [4]: 0.57 µM; Ratio IC50 [5]: > 10 |
| O=C(O)c1ccccc1OCc1cn(Cc2ccc3c(c2)C(=O)c2ccccc2C3=O)nn1 | 24.2% |  |  |
| O=Cc1cc(Cl)ccc1OCc1cn(Cc2ccc3c(c2)C(=O)c2ccccc2C3=O)nn1 | 61.1% | 46.5 µM |  |
| O=C1c2ccccc2C(=O)c2cc(Cn3cc(COc4ccccc4)nn3)ccc21 | 18.4% |  |  |
| O=C1c2ccccc2C(=O)c2cc(Cn3cc(CO)nn3)ccc21 | 31% |  |  |
| COc1cc(C=O)cc(OC)c1OCc1cn(Cc2ccc3c(c2)C(=O)c2ccccc2C3=O)nn1 | 70.3% | 16.8 µM |  |
| O=Cc1cc(Br)ccc1OCc1cn(Cc2ccc3c(c2)C(=O)c2ccccc2C3=O)nn1 | 21.1% |  |  |
| N#Cc1ccc(OCc2cn(Cc3ccc4c(c3)C(=O)c3ccccc3C4=O)nn2)cc1 | 7% |  |  |
| CCCCCCn1cc(COc2ccccc2C=O)nn1 | 43.5% |  |  |
| CCN(CC)c1ccc(C=O)c(OCc2cn(Cc3ccc4c(c3)C(=O)c3ccccc3C4=O)nn2)c1 | 9.8% |  |  |
| CCCCCCn1cc(COc2ccc(F)cc2C=O)nn1 | 93% | 9 µM |  |
| O=Cc1cc(F)ccc1OCc1cn(Cc2ccc3c(c2)C(=O)c2ccccc2C3=O)nn1 | 88% | 0.8 µM | Ratio IC50 [5]: > 10 |
| O=Cc1cccc(OCc2cn(Cc3ccc4c(c3)C(=O)c3ccccc3C4=O)nn2)c1 | 77.2% | 15.1 µM |  |
| O=Cc1ccccc1OCc1cn(Cc2ccccc2)nn1 | 46.7% |  |  |
| O=Cc1ccc(OCc2cn(Cc3ccc4c(c3)C(=O)c3ccccc3C4=O)nn2)cc1 | 67.5% | 30.5 µM |  |
| CC(=O)OCc1cn(Cc2ccc3c(c2)C(=O)c2ccccc2C3=O)nn1 | 19.4% |  |  |
| Oc1ncnc2[nH]ncc12 [ALLOPURINOL] | 95.1% |  |  |
